Reference: paper PMC4696031 (Cancer, 2013)
“And” between values parts separate entries of the source, which are not always exact repeats. Equal values may be shown once.

What was measured:
advanced UC = settings: vinflunine plus BSC, vs 1.5 months BSC alone, P = .001; cited from earlier work
[1] = system: locally advanced or metastatic urothelial cancer; test: Phase 2 trial: tumor response; assay type: in vivo, patients
[2] = system: patients with locally advanced or metastatic urothelial cancer; test: Phase 2 trial: safety, adverse events; assay type: in vivo
solid tumors = settings: cited from earlier work
UC cell lines = settings: cited from earlier work
[3] = Phase 2 trial: plasma pharmacokinetics; assay type: in vivo, patients; settings: for Tmax: first 2-hour intravenous infusion of 300 mg
urothelial cancer = settings: cited from earlier work
metastatic UC = settings: cited from earlier work; for long-term progression-free survival (PFS): at 5 years; for complete response (CR) rate / median overall survival (mOS) / overall response rate: first-line, phase 3
[4] = post hoc subgroup: disease progression >6 months after most recent chemotherapy
[5] = post hoc subgroup: disease progression ≤6 months after most recent chemotherapy
[6] = subgroup: patients who did not escalate
[7] = subgroup: patients who escalated to volasertib 350 mg

CC[C@]12C=CCN3CC[C@@]4(c5cc([C@@]6(C(=O)OC)C[C@@H]7C[C@@H](C(C)(F)F)CN(Cc8c6[nH]c6ccccc86)C7)c(OC)cc5N(C)[C@H]4[C@@](O)(C(=O)OC)[C@@H]1OC(C)=O)[C@@H]32 [Vinflunine, vinflunine]
median PFS (mPFS) (advanced UC): 3.0 months

CC[C@@H]1C(=O)N(C)c2cnc(Nc3ccc(C(=O)N[C@H]4CC[C@H](N5CCN(CC6CC6)CC5)CC4)cc3OC)nc2N1C(C)C [Volasertib]
Disease control: PR + SD ([1]; N = 50): 20 (40) No. of patients (%) | OS rate at 3 mo ([1]; N = 50): 77.2% | OS rate at 6 mo ([1]; N = 50): 55.5% | OS: Median [95% CI] ([1]; N = 50): 8.5 [3.9-12.1] mo | PFS rate at 3 mo ([1]; N = 50): 32% | PFS rate at 6 mo ([1]; N = 50): 20% | PFS: Median [95% CI] ([1]; N = 50): 6.1 [5.6-11.1] wk | patients with partial response ([1]; N = 50): 14% | patients with stable disease ([1]; N = 50): 26% | Response: SD ([1]; best overall response, N = 50): 13 (26) No. of patients (%) | patients who achieved a PR as best overall response ([1]; final analysis, N = 50): 7 patients | overall response rate ([1]; final analysis, N = 50, all PRs): 14% | Duration of disease control, PR or SD: Median ([1]; in vivo): 27.0 wk | Duration of disease control, PR or SD: range ([1]; in vivo): 10.1-77.3 wk | patients with PR at preplanned interim efficacy analysis ([1]; of the first 20 patients who completed 4 treatment cycles): 2 patients | mPFS [1, 4]: 10.1 weeks | response rate [1, 4]: 15% | mPFS [1, 5]: 5.6 weeks | response rate [1, 5]: 14% | Duration of PR: range ([1]; responders): 29.1-77.3 wk | PR / response rate [1, 6]: 7.4% and 7% | mOS [1, 6]: 5.8 months | mPFS [1, 6]: 6.0 weeks and 6 weeks | PR / response rate [1, 7]: 21.7% and 22% | mOS [1, 7]: 10.6 months | mPFS [1, 7]: 11.1 weeks | Adverse event leading to dose reduction: Diarrhea ([2]; human, in vivo): 1 (2) No. of Patients (%) | Adverse event leading to dose reduction: ECG: Prolonged QT ([2]; human, in vivo): 1 (2) No. of Patients (%) | Adverse event leading to dose reduction: Fatigue ([2]; human, in vivo): 1 (2) No. of Patients (%) | Adverse event leading to dose reduction: Nausea ([2]; human, in vivo): 1 (2) No. of Patients (%) | Adverse event leading to dose reduction: Neutropenia ([2]; human, in vivo): 2 (4) No. of Patients (%) | Adverse event leading to dose reduction: Thrombocytopenia ([2]; human, in vivo): 3 (6) No. of Patients (%) | febrile neutropenia (grade 3) ([2]; human, in vivo): 1 episode | grade 3 and 4 anemia ([2]; human, in vivo): 16% | grade 3 and 4 neutropenia ([2]; human, in vivo): 28% | grade 3 and 4 thrombocytopenia ([2]; human, in vivo): 20% | patients with dose reductions because of unacceptable toxicities in cycle 1 ([2]; human, in vivo): 4 patients | patients with dose reductions because of unacceptable toxicities, overall ([2]; human, in vivo): 14% | treatment discontinuation because of AE ([2]; human, in vivo): 1 n | clinically relevant side effect such as arrhythmias or cardiac dysfunction ([2]; in vivo): No clinically relevant side effect | cumulative toxicity ([2]; in vivo): No cumulative toxicity was observed | grade 3 QTc prolongation ([2]; in vivo): One patient | safety profile ([2]; in vivo): acceptable safety profile | deaths attributed to the study treatment ([2]; three patients died during the study because of disease progression): none | maximum tolerated dose (solid tumors; dose-escalation clinical phase 1 trial): 400 mg | recommended dose for phase 2 trials (solid tumors; in vivo, iv): 300 mg | tumor response in phase 1 trials (solid tumors; patients with heavily pretreated, metastatic UC): partial responses | mitotic arrest and apoptosis in UC cells (UC cell lines): promote mitotic arrest and apoptosis | proliferation of multiple UC cell lines (UC cell lines; ref data on file, Boehringer Ingelheim): inhibited the proliferation | effect of sex, age, weight, body mass index, or body surface area on PK profile ([3]; data not shown): not significantly affected | AUC(0-inf) ([3]; human, plasma, iv, 300 mg): 5470 ng·h/mL | Cmax ([3]; human, plasma, iv, 300 mg): 253 ng/mL | MRT ([3]; human, plasma, iv, 300 mg): 136 h | Vd ([3]; human, plasma, iv, 300 mg): 7470 L | clearance ([3]; human, plasma, iv, 300 mg): 914 mL/min | half-life ([3]; human, plasma, iv, 300 mg): 150 h | Tmax ([3]; human, plasma, iv, 300 mg, Median): ~2 h | Tmax ([3]; human, plasma, iv, 300 mg, Range): 1.53 to 4.17 h | PK behavior ([3]; plasma concentration-time course): multiexponential PK behavior

Cc1ccc(Nc2nccc(N(C)c3ccc4c(C)n(C)nc4c3)n2)cc1S(N)(=O)=O [pazopanib]
antitumor activity in nonrandomized phase 2 trials (urothelial cancer): modest activity

gemcitabine plus cisplatin [GC]
long-term progression-free survival (PFS) (metastatic UC): 9.8% | complete response (CR) rate (metastatic UC): approximately 12% | median overall survival (mOS) (metastatic UC): 13.8 months | overall response rate (metastatic UC): 49%

methotrexate, vinblastine, doxorubicin, and cisplatin [MVAC]
long-term progression-free survival (PFS) (metastatic UC): 11.3% | complete response (CR) rate (metastatic UC): approximately 12% | median overall survival (mOS) (metastatic UC): 14.8 months | overall response rate (metastatic UC): 46%
